Laboratory results reported in ChEMBL document CHEMBL6087393, “Sensitive quantification of fibroblast activation protein and high-throughput screening for inhibition by FDA-approved compounds” (Eur J Med Chem, 2024).

Legend:
clinical = settings: human
Prolyl endopeptidase FAP = molecular target: T1, Prolyl endopeptidase FAP (Homo sapiens, UniProt Q12884); assay: Inhibition of recombinant human FAP extracted from S2 cells using fluorogenic FAP as specific substrate measured after 10 mins incubation by 7-amino-4-methylcoumarin in assay
T1 sequence (Q12884 whole entry): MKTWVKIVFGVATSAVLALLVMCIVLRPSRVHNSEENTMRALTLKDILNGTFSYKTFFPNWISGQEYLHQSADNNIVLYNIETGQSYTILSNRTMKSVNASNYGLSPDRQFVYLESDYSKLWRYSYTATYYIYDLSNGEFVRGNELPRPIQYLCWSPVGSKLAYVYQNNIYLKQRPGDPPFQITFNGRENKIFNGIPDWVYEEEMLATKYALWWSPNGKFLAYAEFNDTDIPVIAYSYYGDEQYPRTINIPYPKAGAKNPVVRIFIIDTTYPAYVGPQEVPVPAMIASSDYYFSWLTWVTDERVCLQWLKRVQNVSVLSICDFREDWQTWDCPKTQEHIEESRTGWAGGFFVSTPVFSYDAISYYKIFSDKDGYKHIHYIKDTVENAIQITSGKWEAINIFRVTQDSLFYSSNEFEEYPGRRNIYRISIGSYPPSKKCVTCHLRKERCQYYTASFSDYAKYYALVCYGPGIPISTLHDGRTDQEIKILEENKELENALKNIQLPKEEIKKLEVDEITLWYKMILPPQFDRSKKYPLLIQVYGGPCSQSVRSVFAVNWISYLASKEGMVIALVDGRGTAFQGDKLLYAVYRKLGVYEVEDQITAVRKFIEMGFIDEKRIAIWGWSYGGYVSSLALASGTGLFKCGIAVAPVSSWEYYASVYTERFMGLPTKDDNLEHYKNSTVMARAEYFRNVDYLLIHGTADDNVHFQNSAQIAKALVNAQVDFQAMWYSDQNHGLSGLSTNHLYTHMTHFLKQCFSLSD

| Cmax (clinical) | SMILES | IC50 (Prolyl endopeptidase FAP) |
| --- | --- | --- |
| 12 nM | CC#CCn1c(N2CCC[C@@H](N)C2)nc2c1c(=O)n(Cc1nc(C)c3ccccc3n1)c(=O)n2C [LINAGLIPTIN] | – |
| – | C[C@H](Cn1cnc2c(N)ncnc21)OCP(=O)(O)O [TENOFOVIR ANHYDROUS] | > 100 µM |
| 1200 nM | Cc1cc2ncc(C(=O)NCC(C)(C)NCC(=O)N3CCC[C@H]3C#N)cn2n1 [ANAGLIPTIN] | – |
| – | Nc1ncnc2c1ncn2CCOCP(=O)(O)O [ADEFOVIR] | > 100 µM |
